# Test results published in patent US8778946B2, “3-substituted-6-(pyridinylmethoxy)-pyrrolopyridine compounds” (Eli Lilly and Company, priority 2010, dated 2014).
# “And” between values parts separate entries of the source, which are not always exact repeats. Identical values can stand only once. Marks after values point to notes of the source that are not given here.
# Experiments:
# C57/black 6J male mice [1] = assay: Basal (habituated) locomotor activity; format: in vivo
# Method: (§1) Anti-Parkinson effects of compounds of the invention can be determined using procedures well known in the art such as animal models of locomotor activity. For example, compounds of the invention show effects on basal (habituated) locomotor activity and on reserpine-induced akinesia in C57/black 6J male mice.
# Locomotor activity is measured using an automated system to track movement in mice. Mice are placed in chambers and allowed to habituate to the chambers for 30 mins. During this time they show reduced locomotion over time. Following administration of a compound of the invention, animal movement is restored to pre-habituation levels.
# More specifically, locomotor activity boxes [40×40×40 cm clear arenas] are situated in groups of 4 placed on infrared tables and testing is performed in the dark. Locomotor activity is recorded and measured using infrared video tracking. Locomotor activity is recorded between time of 8:30 and 17:00 hours. In some instances locomotor activity is measured using open fields which use infrared beam breaks as a measure of movement.
# (§2) Mice are randomly assigned to treatment groups. Each mouse is placed individually into one of the locomotor activity boxes. Distance moved (cm) is recorded per 5 minutes for each mouse. Exploratory behavior is assessed for the following 30 minutes. After 30 minutes recording stops and mice are dosed p.o. with the test compound or vehicle in a volume of 10 ml/kg. Once all mice have been dosed, locomotor activity recording is started for a further 120 minutes to assess the effect of treatment on habituated locomotor activity. Data is transferred from the software/computers to spreadsheets for further analysis. Statistical analysis is carried out using Statistica 8.0. One way ANOVA on TOTAL distance moved, with Treatment group as the between factor, is calculated. If a significant Treatment effect (p≦0.05) is observed then post-hoc analysis is performed, either Fishers' LSD or Dunnetts' test.
# [2] = tested on: male Fischer F-344 Sasco rats; assay: Attenuation of stress-induced hyperthermia in rats; format: in vivo; conditions: oral, 60-min pretreatment
# Method: Stress-induced hyperthermia is attenuated by clinical anxiolytics and is widely used preclinically to predict anxiolytic efficacy of compounds.
# In separate studies, male Fischer F-344 Sasco rats are dosed orally with 0.3, 1, 3, or 10 mg/kg of test compound in a vehicle consisting of 1% carboxymethylcellulose, 0.25% polysorbate 80, 0.05% antifoam (dose volume=1 ml/kg). The mGluR5 receptor antagonist MTEP (3-[(2-methyl-1,3-thiazol-4-yl)ethynyl]pyridine) (10 mg/kg, PO) is used as a quality control. Following a 60-min pretreatment period, core baseline body temperature is measured (T1, in degrees C.) and then ten minutes later a second body temperature measurement is recorded (T2). The change in body temperature (T2 minus T1) is defined as the stress-induced hyperthermic response. The efficacious dose is the dose at which a compound produces a 35% reduction in stress-induced hyperthermia, relative to the vehicle response, and is defined as the T35 dose.
# C57/black 6J male mice [3] = assay: Reversal of reserpine-induced akinesia; format: in vivo
# Method: as §1
# Reserpine is a catecholamine depleting agent (depletes dopamine and noradrenaline) and 18-24 hours after treatment mice become akinetic and have reduced locomotor activity counts. Reserpine-induced akinesia is assessed by measuring the effect of compounds on locomotor activity approximately 18-24 hours after a single dose of 1 mg/kg reserpine i.p. The equipment used is the same as that used for basal locomotor activity (above).
# as §2, with “Basal and reserpine-induced exploratory” for “Exploratory”, “compound” for “compound or vehicle”, “dosed” for “dosed,”, “akinesia.” for “habituated locomotor activity.”
# human mGluR5 = molecular target: T1, human mGluR5 (Homo sapiens, UniProt P41594); assay: Human mGluR5 in vitro functional assay (FLIPR calcium, antagonism of glutamate EC90 response); format: cell-based; conditions: AV-12 cells expressing recombinant human mGlu5a, relative IC50
# T1 construct: expressed in transfected cells; host or cells: AV-12 cells containing the rat EAAT1 glutamate transporter
# Text: (§3) The activation of G-protein coupled receptors (GPCRs) that are coupled to Gq proteins results in a change in intracellular calcium concentration. This functional response can be measured in a kinetic assay using calcium-sensitive dyes and a fluorescent imaging plate reader using a standard technique known as FLIPR (MDS Analytical Technologies, Sunnyvale, Calif.).
# (§4) Stable cell line preparation and assay techniques are adapted from Kingston, A. E., et. al. (1995) Neuropharmacology 34: 887-894. […]
# (§5) For the functional assays, cells are seeded in growth medium lacking selection antibiotics at a density of 65K per well into 96-well, black/clear bottom, poly-D-lysine coated microplates and incubated for 18-20 hours prior to the experiment. […] The antagonist effects of compounds are quantified in the FLIPR instrument in 10-point dose curves by comparing the peak fluorescent responses to the agonist glutamate in the presence and absence of compound. Specifically, the compound effect is measured as maximal minus minimal peak heights in relative fluorescent units corrected for basal fluorescence as measured in the absence of glutamate. All data are calculated as relative IC50 values using a four-parameter logistic curve fitting program (Activity Base® v5.3.1.22).
# human mGluR1 = molecular target: T2, human mGluR1 (Homo sapiens, UniProt Q13255); assay: Human mGluR1 in vitro functional assay (FLIPR calcium, antagonism of glutamate EC90 response); format: cell-based; conditions: AV-12 cells expressing recombinant human mGlu1α, relative IC50
# T2 construct: expressed in transfected cells; host or cells: AV-12 cells containing the rat EAAT1 glutamate transporter
# Text: as §3, §4, §5
# Male, NIH-Swiss mice = assay: Mouse forced-swim; format: in vivo
# Method: Male, NIH-Swiss mice (20-25 g, Harlan Sprague-Dawley, Indianapolis, Ind.) are used in a method modified from that of Porsolt R D, Le Pichon M, Jalfre M Depression: a new animal model sensitive to antidepressant treatments. Nature. 1977 Apr. 21; 266(5604):730-2. Mice are placed in clear plastic cylinders (diameter 10 cm; height: 25 cm) filled to 6 cm with 22-25° C. water for six min. The duration of immobility is recorded during the last 4 min of a six-minute trial. A mouse is regarded as immobile when floating motionless or making only those movements necessary to keep its head above the water. Data are analyzed by post-hoc Dunnett's test with alpha level set at 0.05. The amount of time spent immobile is measured. Means+S.E.M. are subjected to ANOVA followed by Dunnett's test with p<0.05 set as the error rate for statistical significance. ED60 values are extrapolated from the linear portion of the dose-effect curve and represent the dose predicted to decrease basal immobility (100% at 0 mg/kg compound) by 60%. The maximal decrease in immobility time is calculated using the largest decrease in immobility produced at any dose of a compound with this formula: (100-immobility with compound/immobility under vehicle control) %.
# [4] = reserpine 1 mg/kg i.p. + 3 mg/kg p.o. test compound
# [5] = reserpine 1 mg/kg i.p. + 10 mg/kg p.o. test compound
# T2 sequence (Q13255 19-1194): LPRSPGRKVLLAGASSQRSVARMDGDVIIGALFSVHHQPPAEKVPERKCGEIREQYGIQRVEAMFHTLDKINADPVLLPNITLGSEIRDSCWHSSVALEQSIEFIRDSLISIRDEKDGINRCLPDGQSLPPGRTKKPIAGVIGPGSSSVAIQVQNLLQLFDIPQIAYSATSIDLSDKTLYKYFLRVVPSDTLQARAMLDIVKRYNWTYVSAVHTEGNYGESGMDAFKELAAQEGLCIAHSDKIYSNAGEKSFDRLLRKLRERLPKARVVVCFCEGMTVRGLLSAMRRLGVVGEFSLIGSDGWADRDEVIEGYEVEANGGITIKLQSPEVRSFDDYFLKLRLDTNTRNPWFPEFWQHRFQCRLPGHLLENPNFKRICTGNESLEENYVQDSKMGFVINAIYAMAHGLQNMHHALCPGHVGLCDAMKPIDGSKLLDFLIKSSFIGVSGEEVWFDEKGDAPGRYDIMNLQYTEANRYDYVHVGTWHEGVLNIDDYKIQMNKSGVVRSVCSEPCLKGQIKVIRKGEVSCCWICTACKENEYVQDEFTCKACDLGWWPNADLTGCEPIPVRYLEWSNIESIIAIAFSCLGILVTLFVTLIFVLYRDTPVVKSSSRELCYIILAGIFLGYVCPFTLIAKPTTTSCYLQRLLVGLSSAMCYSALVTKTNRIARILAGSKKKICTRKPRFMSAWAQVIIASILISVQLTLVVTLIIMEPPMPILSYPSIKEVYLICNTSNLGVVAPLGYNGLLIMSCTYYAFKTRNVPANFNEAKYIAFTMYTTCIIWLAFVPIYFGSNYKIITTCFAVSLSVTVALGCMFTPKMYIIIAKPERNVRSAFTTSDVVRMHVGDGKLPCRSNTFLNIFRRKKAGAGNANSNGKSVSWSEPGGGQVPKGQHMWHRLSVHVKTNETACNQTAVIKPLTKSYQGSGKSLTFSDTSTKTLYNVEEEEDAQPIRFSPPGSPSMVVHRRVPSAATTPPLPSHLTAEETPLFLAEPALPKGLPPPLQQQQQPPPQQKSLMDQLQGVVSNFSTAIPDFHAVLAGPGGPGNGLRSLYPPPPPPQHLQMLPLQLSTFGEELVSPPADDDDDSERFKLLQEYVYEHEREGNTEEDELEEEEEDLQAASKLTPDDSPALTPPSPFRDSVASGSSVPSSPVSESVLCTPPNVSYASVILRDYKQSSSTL
# T1 sequence (P41594 21-1180 isoform P41594-2 limits assumed): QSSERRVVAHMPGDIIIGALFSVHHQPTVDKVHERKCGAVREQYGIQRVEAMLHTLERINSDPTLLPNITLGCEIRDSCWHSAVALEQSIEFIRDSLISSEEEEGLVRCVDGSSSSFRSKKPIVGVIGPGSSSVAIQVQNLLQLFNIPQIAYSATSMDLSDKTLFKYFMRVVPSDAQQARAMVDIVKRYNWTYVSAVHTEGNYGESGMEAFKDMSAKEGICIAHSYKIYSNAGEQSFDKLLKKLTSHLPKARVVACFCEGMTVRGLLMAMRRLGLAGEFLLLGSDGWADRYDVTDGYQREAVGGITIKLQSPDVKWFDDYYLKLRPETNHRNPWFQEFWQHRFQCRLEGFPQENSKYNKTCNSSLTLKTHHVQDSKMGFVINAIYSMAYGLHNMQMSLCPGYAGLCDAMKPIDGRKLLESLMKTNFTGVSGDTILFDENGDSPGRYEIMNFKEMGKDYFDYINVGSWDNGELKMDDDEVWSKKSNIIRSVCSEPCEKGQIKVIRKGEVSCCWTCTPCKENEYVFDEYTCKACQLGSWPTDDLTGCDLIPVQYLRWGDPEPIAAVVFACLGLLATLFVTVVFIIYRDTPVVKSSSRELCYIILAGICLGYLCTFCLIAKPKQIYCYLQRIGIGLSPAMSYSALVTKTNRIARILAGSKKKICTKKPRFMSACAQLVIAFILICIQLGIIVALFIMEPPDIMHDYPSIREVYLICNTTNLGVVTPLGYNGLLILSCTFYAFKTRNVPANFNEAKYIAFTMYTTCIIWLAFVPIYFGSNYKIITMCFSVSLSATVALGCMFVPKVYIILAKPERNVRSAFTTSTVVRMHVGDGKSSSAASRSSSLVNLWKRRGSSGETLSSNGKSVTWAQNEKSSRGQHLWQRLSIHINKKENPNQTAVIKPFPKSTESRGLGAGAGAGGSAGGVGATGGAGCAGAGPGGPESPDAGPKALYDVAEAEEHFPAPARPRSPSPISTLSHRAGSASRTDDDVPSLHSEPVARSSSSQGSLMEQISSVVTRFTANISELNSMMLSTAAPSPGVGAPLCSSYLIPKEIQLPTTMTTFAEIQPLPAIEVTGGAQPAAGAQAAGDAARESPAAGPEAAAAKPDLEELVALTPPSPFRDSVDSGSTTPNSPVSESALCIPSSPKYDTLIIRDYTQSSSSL
SMILES,Basal Locomotor Activity (mean distance moved (cm) in 120 min) (C57/black 6J male mice [1]; 3 mg/kg p.o.),Basal Locomotor Activity (mean distance moved (cm) in 120 min) (C57/black 6J male mice [1]; 10 mg/kg p.o.),Reversal of Reserpine-Induced Akinesia (mean distance moved (cm) in 120 min) (C57/black 6J male mice [3]; [4]),Reversal of Reserpine-Induced Akinesia (mean distance moved (cm) in 120 min) (C57/black 6J male mice [3]; [5]),further results
"CCCOC(=O)N1CCN(c2cn(C)c3nc(OCc4ccccn4)ccc23)C(=O)C1 [Example 3, Propyl 4-[1-methyl-6-(pyridin-2-ylmethoxy)-1H-pyrrolo[2,3-b]pyridin-3-yl]-3-oxopiperazine-1-carboxylate]",28458.8 *** cm,39857.5 *** cm,,,T35 dose (dose producing a 35% reduction in stress-induced hyperthermia relative to vehicle) [2]: 0.93 mg/kg
"CC(C)OC(=O)N1CCN(c2cn(C)c3nc(OCc4ccccn4)ccc23)C(=O)C1 [Example 4, 1-Methylethyl 4-[1-methyl-6-(pyridin-2-ylmethoxy)-1H-pyrrolo[2,3-b]pyridin-3-yl]-3-oxopiperazine-1-carboxylate]",30715.2 ** cm,39935.6 *** cm,16474.1 + cm,23394.4± **+++ cm,
"COC(=O)[C@H]1[C@H]2C[C@@H]3c4[nH]c5cc(OC)ccc5c4CCN3C[C@H]2C[C@@H](OC(=O)c2cc(OC)c(OC)c(OC)c2)[C@@H]1OC [reserpine, Reserpine, reference compound]",,,,,"mean distance moved (cm) in 120 min, reserpine alone (C57/black 6J male mice [3]; 18-24 hours after single dose of 1 mg/kg reserpine i.p., no test compound, 1 mg/kg): 4118.6 cm and 7331.1 cm and 4597.2 cm and 6150 cm"
"CCOC(=O)N1CCN(c2cn(C)c3nc(OCc4ccccn4)c(Cl)cc23)C(=O)C1 [Example 27, Ethyl 4-[5-chloro-1-methyl-6-(pyridin-2-ylmethoxy)-1H-pyrrolo[2,3-b]pyridin-3-yl]-3-oxopiperazine-1-carboxylate]",35290.1 *** cm,36889.1 *** cm,27053.7 ***+++ cm,23432.5 **+++ cm,
"CCn1cc(N2CCN(C(=O)OC)CC2=O)c2ccc(OCc3ccccn3)nc21 [Example 23, methyl 4-[1-ethyl-6-(pyridin-2-ylmethoxy)-1H-pyrrolo[2,3-b]pyridin-3-yl]-3-oxopiperazine-1-carboxylate]",21628.2 ** cm,31070.8 *** cm,,,
"CCOC(=O)N1CCN(c2cn(C)c3nc(OCc4ccccn4)c(C)cc23)C(=O)C1 [Example 28, Ethyl 4-[1,5-dimethyl-6-(pyridin-2-ylmethoxy)-1H-pyrrolo[2,3-b]pyridin-3-yl]-3-oxopiperazine-1-carboxylate]",25074.1 ** cm,32866.2 *** cm,7848.9 cm,14087.6 **+++ cm,
"CCOC(=O)N1CCN(c2cn(C)c3nc(OCc4ccccn4)ccc23)C(=O)C1 [Example 1, ethyl 4-[1-methyl-6-(pyridin-2-ylmethoxy)-1H-pyrrolo[2,3-b]pyridin-3-yl]-3-oxopiperazine-1-carboxylate]",15980 *** cm,25109 *** cm,23611 ***+++ cm,,"IC50 (human mGluR5): 184 nM; IC50 (human mGluR1): > 12500 nM; Basal Locomotor Activity (mean distance moved (cm) in 120 min) (C57/black 6J male mice [1]; 1 mg/kg p.o.): 12147 ** cm; Reversal of Reserpine-Induced Akinesia (mean distance moved (cm) in 120 min) (C57/black 6J male mice [3]; reserpine 1 mg/kg i.p. + 1 mg/kg p.o. test compound): 15392 ++ cm; Reversal of Reserpine-Induced Akinesia (mean distance moved (cm) in 120 min) (C57/black 6J male mice [3]; reserpine 1 mg/kg i.p. + 30 mg/kg p.o. test compound): 32607 ***+++ cm; T35 dose (dose producing a 35% reduction in stress-induced hyperthermia relative to vehicle) [2]: 0.55 mg/kg; ED60 dose, reduction in forced swim immobility (Male, NIH-Swiss mice; extrapolated from linear portion of dose-effect curve): 8.6 mg/kg; maximal decrease in immobility (Male, NIH-Swiss mice; largest decrease at any dose relative to vehicle control): 50.6%; melting point: 143.42 °C"
